{"source": "patent US9820951B2", "about": "“Pulmonary disease treatment and diagnosis based on Arhgef1” (NATIONAL JEWISH HEALTH, A NON-PROFIT ORGANIZATION, priority 2011, dated 2017)", "test_system": "MMP9", "test": "MMP9 production by human alveolar macrophages cultured on fibronectin (gelatin zymography)", "type": "cell-based", "details": "PTA2 1.25, 6.25 and 25 μM, dose-dependent", "excerpt": "FIG. 14. Human alveolar macrophages produce TXB2 when cultured on fibronectin and thromboxane receptor signaling is required for MMP9 production. A, TXB2 production measured in conditioned media from human macrophages cultured on fibronectin (closed bars) or plastic (open bars) at the indicated cellular concentrations. B, TXB2 measured in conditioned media from macrophages cultured at 0.125×10^6 cells/ml on either plastic (ctl) or FN from four individuals. The data represent the means±S.E. C, gelatin zymogram of conditioned media from cells cultured as indicated and in the presence of increasing doses of the thromboxane receptor antagonist PTA2 (at 1.25, 6.25, and 25 μM, respectively). Below the zymogram is quantitation of MMP9 activity by densitometric analysis.\nTissue-culture 96-well plates (Costar high binding catalogue number 3590) were coated with 10 μg/ml of murine fibronectin (Molecular Innovations, Nori, Minn.; catalogue number MFBN) or human fibronectin (Molecular Innovations; catalogue number HFBN) in DPBS without Ca^2+ or Mg^2+ (Mediatech, Inc., Manassas, Va.) for 2 h at room temperature. […] PGE2 and TXB2 were measured in conditioned medium by ELISA according to the manufacturer's instructions (ElisaTech, Aurora, Colo.). […]\nFor other human studies, we quantitated MMP9 by ELISA in conditioned medium (ELISA TECH, Aurora, Colo.). […]", "data": [{"compound": "CCCCC[C@@H](O)/C=C/[C@H]1C[C@H]2C[C@@H]([C@@H]1C/C=C\\CCCC(=O)O)C2(C)C", "note": "(relative stereo) [PTXA2, (18-(1alpha,2beta(Z),3alpha(1E,3S*),5alpha))-7-(3-(3-Hydroxy-1-octenyl)-6,6-dimethylbicyclo(3.1.1)hept-2-yl)-5-heptenoic acid]", "values": [{"measurement": "inhibition of MMP9 production", "result": "~90", "unit": "%"}]}]}
